Reference: PMC4938916, “Effect of mutations to amino acid A301 and F361 in thermostability and catalytic activity of the β-galactosidase from Bacillus subtilis VTCC-DVN-12-01” (BMC Biochemistry, 2016)

Experiments:
Assay in all cases: o-nitrophenol release at […] nm, Lineweaver-Burk
Type in all cases: biochemical
Details in all cases: 100 mM buffer Z (1 mM MgSO4, 50 mM 2-mercaptoethanol), pH 7.0, 55 °C; apparent
[1] = biological target: T1, β-galactosidase LacA (LacA-WT) (Bacillus subtilis, UniProt O07012, A286V, form not given)
T1 construct: gene ganA; full lacA gene (2061 bp) in pET22b(+), C-terminal 6xHis tag kept, E. coli JM109(DE3), Ni ProBond purified, 70 kDa, GH42

[2] = biological target: T2, β-galactosidase LacA (LacA-WT) (Bacillus subtilis, UniProt O07012, F346Y, form not given)
T2 construct: gene ganA; full lacA gene (2061 bp) in pET22b(+), C-terminal 6xHis tag kept, E. coli JM109(DE3), Ni ProBond purified, 70 kDa, GH42

[3] = biological target: T3, β-galactosidase LacA (LacA-WT) (Bacillus subtilis, UniProt O07012)
T3 construct: gene ganA; full lacA gene (2061 bp) in pET22b(+), C-terminal 6xHis tag kept, E. coli JM109(DE3), Ni ProBond purified, 70 kDa, GH42
T3 sequence (O07012 whole entry): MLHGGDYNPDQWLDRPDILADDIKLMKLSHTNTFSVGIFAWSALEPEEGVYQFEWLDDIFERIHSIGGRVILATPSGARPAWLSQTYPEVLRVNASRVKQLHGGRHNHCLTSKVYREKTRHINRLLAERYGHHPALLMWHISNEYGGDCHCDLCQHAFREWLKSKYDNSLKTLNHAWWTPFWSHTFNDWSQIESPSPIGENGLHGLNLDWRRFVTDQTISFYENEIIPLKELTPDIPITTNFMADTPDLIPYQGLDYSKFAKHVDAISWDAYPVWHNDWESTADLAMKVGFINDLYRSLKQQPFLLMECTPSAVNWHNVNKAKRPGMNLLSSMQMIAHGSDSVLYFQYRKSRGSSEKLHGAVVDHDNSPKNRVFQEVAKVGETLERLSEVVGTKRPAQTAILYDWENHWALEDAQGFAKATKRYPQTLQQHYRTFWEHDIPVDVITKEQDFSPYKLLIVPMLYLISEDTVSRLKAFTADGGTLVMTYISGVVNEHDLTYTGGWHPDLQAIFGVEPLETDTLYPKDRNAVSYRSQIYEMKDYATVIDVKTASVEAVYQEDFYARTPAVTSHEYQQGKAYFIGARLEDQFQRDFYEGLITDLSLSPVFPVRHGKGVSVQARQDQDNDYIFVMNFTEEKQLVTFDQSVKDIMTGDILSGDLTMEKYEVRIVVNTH

T2 sequence (O07012 whole entry F346Y, form open): as the sequence (O07012 whole entry) above, with F346Y counted along it
T1 sequence (O07012 whole entry A286V, form open): as the sequence (O07012 whole entry) above, with A286V counted along it

Q: For O=[N+]([O-])c1ccccc1O[C@@H]1O[C@H](CO)[C@H](O)[C@H](O)[C@H]1O [oNPG, Ortho-nitrophenyl-β-D-galactopyranoside], which Km [1] is on record?
A: The Km was 5.57 ± 0.56 mM.

Q: And the Km [2]?
A: Its Km is 8.02 ± 0.27 mM.

Q: And the Km [3]?
A: The Km was 9.28 ± 0.72 mM.
